Reference: US11351134B2, “Small molecule agents, compositions, and formulations, for internal use, displaying inhibitory activity against gram-positive and/or gram-negative organisms” (NATUREZA, INC., priority 2017, dated 2022)
Where two headings read alike, the source gives them in different places.

Experiments:
Type in all cases: cell-based
Escherichia coli = assay: Broth microdilution (CLSI M07) of active component mixed with water only; details: active component mixed with water only (miscible state); about 0.0009 wt. % to about 8 wt. %
Method: (§1) Initially, to determine basic characteristics, each active component was separately mixed, generally under agitated conditions, with water, and each was miscible with water. Each, after being mixed with water, was tested in a broth microdilution assay, against a variety of bacteria using amounts of the each of the lauric acid derivatives, ranging from about 0.0009 wt. % to about 8 wt. %. The bacteria included Escherichia coli, and Staphylococcus aureus (including MRSA strains). The minimum inhibitory concentration (MIC) needed to prevent growth of the target bacteria was evaluated based on a method published by Clinical Laboratory Standards Institute (CLSI), broth microdilution method M-07 (M07). […] Each of the samples containing one of the lauric acid derivatives was compared with a positive control, decanoic acid.

[1] = tested on: Staphylococcus aureus (including MRSA strains); assay: as above; details: active component mixed with water only (miscible state); about 0.0009 wt. % to about 8 wt. %
Method: as §1

S. epidermidis = assay: Broth microdilution MIC of lecithin/chitosan particle compositions; details: Staphylococcus epidermidis; lecithin/chitosan particle composition; prep. mixture pH 5 or pH 7; maximum concentration tested 10 mg/ml; read-out: MIC (mg/ml) for S. epidermidis (chitosan prep. mixture was at pH 5 or at pH 7)
Method: as §1
(§2) For TABLES 1 to 3, compositions were generally prepared as described above, and as further outlined in this paragraph. For these examples, the active component, as a lauric acid derivative or lauric acid, was suspended in an organic solvent, chloroform, and then mixed with water, under robust agitation. The amount of water to the amount of chloroform was at least about 2:1, and could be as high as 10:1. Chloroform was then evaporated (e.g., under vacuum using a freeze dryer). After removal of the chloroform, a 2.2% lecithin solution in an acetate buffer (e.g., 98 mM acetic acid and 2 mM sodium acetate) was prepared and added, so the final amount of the active component was about 1 part active component mixture and about 9 parts of the 2.2% lecithin solution. Of course, it is noted that other ranges to achieve final amount of the active component as described above (e.g., active component mixture and lecithin solution) may also be utilized. Cholesterol could also be optionally added. The mixture of lecithin and the active component was mixed and sonicated, and then a solution of about 1.5% chitosan was added. Thereafter, the entirety of the mixture containing the lecithin and the active component was further blended, in which a final ratio was about 1 part active component to about 9 parts of the 2.2% lecithin solution to about 10 parts of the 1.5% chitosan solution. The pH was then varied, to a pH of 5, or a pH of 7, or a pH of 9. In some mixtures having a pH of 7, a chemical agent imparting a positive charge to the chitosan was included in a form of glycol chitosan. In these tests, the chemical agent used was glycol. In these examples, the amount of chemical agent, glycol was about one molecule glycol moiety to one molecule chitosan sacharide unit; higher amounts of glycol moieties are also acceptable, while lower amounts of glycol moieties were often found to decrease overall inhibitory activity associated with a composition when formed and tested in vitro. It is noted that negatively charged chitosan containing particles were prepared. […] After mixing, the mixtures could each be filtered through a […] filter. In some tests, the mixtures were sonicated before filtering. Sonication produced small particles. In some studies, particles were freeze dried as a powder (generally, after mixing, sonicating and filtering).
(§3) The positive controls were prepared and evaluated in a similar manner. All prepared samples were tested using a broth microdilution test.

E. coli = assay: as above; details: maximum concentration tested 10 mg/ml; for MIC: Escherichia coli
Method: as §1, §2, §3

[2] = tested on: Gram-positive pathogens and Gram-negative pathogens; assay: In vitro inhibitory activity of chitosan- or carrier-containing particles; details: synthesis (with chitosan) at pH 7 with positively charged chitosan
Text: as §2, §3
This also occurs when the chitosan- or carrier-containing particle includes an active component that has a log P value that is less than 4 and includes a methyl and/or ethyl side chain (e.g., 12-amino-1-dodecanoic acid methyl ester). […]

COC(=O)CCCCCCCCCCCN.Cl [12-amino-1-dodecanoic acid methyl ester HCl]
Inhibitory activity against Gram-negative bacteria (e.g., E. coli) (Escherichia coli): does not, in the miscible state, demonstrate inhibitory activity
Inhibitory activity against Gram-positive bacteria (e.g., S. aureus) [1]: does not, in the miscible state, demonstrate inhibitory activity
MIC (S. epidermidis): 10 mg/mL
MIC (E. coli; lecithin/chitosan particle composition, prep. mixture pH 9, read-out: MIC (mg/ml) for E. coli (chitosan prep. mixture was at pH 9)): 10 mg/mL
MIC (E. coli; lecithin/glycol chitosan particle composition, prep. mixture pH 7, read-out: MIC (mg/ml) for E. coli (chitosan prep. mixture was at pH 7 with glycol chitosan)): 0.8 mg/mL
MIC (mg/ml) for E. coli (chitosan prep. mixture was at pH 5 or at pH 7) (E. coli; lecithin/chitosan particle composition, prep. mixture pH 5 or pH 7): — (no inhibitory activity)
Inhibitory activity against both Gram-positive pathogens and Gram-negative pathogens [2]: stronger inhibitory activity as well as broad spectrum activity
